# Results reported in PubChem BioAssay (NCI).
#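 Test compounds were applied to cells in 96-well plates for 48 hours at 5 doses. Abbreviation: GI50, concentration required for 50% inhibition of growth. TGI: total growth inhibition.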
# How the values were obtained:
# Experiment in all cases: NCI-60 cell line screen, 48 h
# NCI-H226 lung = tested on: NCI-H226 lung
# SK-MEL-28 melanoma = tested on: SK-MEL-28 melanoma
# NCI-H522 lung = tested on: NCI-H522 lung
# SN12C renal = tested on: SN12C renal
# HCT-116 colon = tested on: HCT-116 colon
# HCC-2998 colon = tested on: HCC-2998 colon
# SF-539 CNS = tested on: SF-539 CNS
# NCI-H460 lung = tested on: NCI-H460 lung
# 786-0 renal = tested on: 786-0 renal
# MCF7 breast = tested on: MCF7 breast
# HCT-15 colon = tested on: HCT-15 colon
# SF-268 CNS = tested on: SF-268 CNS
# SW-620 colon = tested on: SW-620 colon
# LOX IMVI melanoma = tested on: LOX IMVI melanoma
# RPMI-8226 leukemia = tested on: RPMI-8226 leukemia
# OVCAR-4 ovarian = tested on: OVCAR-4 ovarian
# T-47D breast = tested on: T-47D breast
# UO-31 renal = tested on: UO-31 renal
# IGROV1 ovarian = tested on: IGROV1 ovarian
# SF-295 CNS = tested on: SF-295 CNS
# UACC-62 melanoma = tested on: UACC-62 melanoma
# K-562 leukemia = tested on: K-562 leukemia
# UACC-257 melanoma = tested on: UACC-257 melanoma
# A549 NSCLC = tested on: A549 NSCLC
# HT29 colon = tested on: HT29 colon
# SK-OV-3 ovarian = tested on: SK-OV-3 ovarian
# M14 melanoma = tested on: M14 melanoma
# ACHN renal = tested on: ACHN renal
# DU-145 prostate = tested on: DU-145 prostate
# SNB-19 CNS = tested on: SNB-19 CNS
# SK-MEL-5 melanoma = tested on: SK-MEL-5 melanoma
# RXF 393 renal = tested on: RXF 393 renal
# KM12 colon = tested on: KM12 colon
# MDA-MB-231 breast = tested on: MDA-MB-231 breast
# NCI-H23 lung = tested on: NCI-H23 lung
# HL-60(TB) leukemia = tested on: HL-60(TB) leukemia
# OVCAR-3 ovarian = tested on: OVCAR-3 ovarian
# MALME-3M melanoma = tested on: MALME-3M melanoma
# MOLT-4 leukemia = tested on: MOLT-4 leukemia
# BT-549 breast = tested on: BT-549 breast
# OVCAR-8 ovarian = tested on: OVCAR-8 ovarian
# SK-MEL-2 melanoma = tested on: SK-MEL-2 melanoma
# COLO 205 colon = tested on: COLO 205 colon
# HOP-62 NSCLC = tested on: HOP-62 NSCLC
# MDA-MB-435 = tested on: MDA-MB-435
# EKVX NSCLC = tested on: EKVX NSCLC
# SNB-75 CNS = tested on: SNB-75 CNS
# U251 CNS = tested on: U251 CNS
# CCRF-CEM leukemia = tested on: CCRF-CEM leukemia
# PC-3 prostate = tested on: PC-3 prostate
# HS 578T breast = tested on: HS 578T breast
# HOP-92 NSCLC = tested on: HOP-92 NSCLC
# A498 renal = tested on: A498 renal
# TK-10 renal = tested on: TK-10 renal
# OVCAR-5 ovarian = tested on: OVCAR-5 ovarian
# CAKI-1 renal = tested on: CAKI-1 renal
# NCI/ADR-RES ovarian = tested on: NCI/ADR-RES ovarian
smiles,measurement,setting,value
CC1=NOC(C)(O)/C1=N/O (centres undefined),TGI,NCI-H226 lung,> 100 µM
same,TGI,SK-MEL-28 melanoma,> 100 µM
same,TGI,NCI-H522 lung,> 100 µM
same,TGI,SN12C renal,> 100 µM
same,TGI,HCT-116 colon,> 100 µM
same,TGI,HCC-2998 colon,> 100 µM
same,TGI,SF-539 CNS,> 100 µM
same,TGI,NCI-H460 lung,> 100 µM
same,TGI,786-0 renal,> 100 µM
same,TGI,MCF7 breast,> 100 µM
same,TGI,HCT-15 colon,> 100 µM
same,TGI,SF-268 CNS,> 100 µM
same,TGI,SW-620 colon,> 100 µM
same,TGI,LOX IMVI melanoma,> 100 µM
same,TGI,RPMI-8226 leukemia,> 100 µM
same,TGI,OVCAR-4 ovarian,> 100 µM
same,TGI,T-47D breast,> 100 µM
same,TGI,UO-31 renal,> 100 µM
same,TGI,IGROV1 ovarian,> 100 µM
same,TGI,SF-295 CNS,> 100 µM
same,TGI,UACC-62 melanoma,> 100 µM
same,TGI,K-562 leukemia,> 100 µM
same,TGI,UACC-257 melanoma,> 100 µM
same,TGI,A549 NSCLC,> 100 µM
same,TGI,HT29 colon,> 100 µM
same,TGI,SK-OV-3 ovarian,> 100 µM
same,TGI,M14 melanoma,> 100 µM
same,TGI,ACHN renal,> 100 µM
same,TGI,DU-145 prostate,> 100 µM
same,TGI,SNB-19 CNS,> 100 µM
same,TGI,SK-MEL-5 melanoma,> 100 µM
same,TGI,RXF 393 renal,> 100 µM
same,TGI,KM12 colon,> 100 µM
same,TGI,MDA-MB-231 breast,> 100 µM
same,TGI,NCI-H23 lung,> 100 µM
same,TGI,HL-60(TB) leukemia,> 100 µM
same,TGI,OVCAR-3 ovarian,> 100 µM
same,TGI,MALME-3M melanoma,> 100 µM
same,TGI,MOLT-4 leukemia,> 100 µM
same,TGI,BT-549 breast,> 100 µM
same,TGI,OVCAR-8 ovarian,> 100 µM
same,TGI,SK-MEL-2 melanoma,> 100 µM
same,TGI,COLO 205 colon,> 100 µM
same,TGI,HOP-62 NSCLC,> 100 µM
same,TGI,MDA-MB-435,> 100 µM
same,TGI,EKVX NSCLC,> 100 µM
same,TGI,SNB-75 CNS,> 100 µM
same,TGI,U251 CNS,> 100 µM
same,TGI,CCRF-CEM leukemia,> 100 µM
same,TGI,PC-3 prostate,> 100 µM
same,TGI,HS 578T breast,> 100 µM
same,TGI,HOP-92 NSCLC,> 100 µM
same,TGI,A498 renal,> 100 µM
same,TGI,TK-10 renal,> 100 µM
same,TGI,OVCAR-5 ovarian,> 100 µM
same,TGI,CAKI-1 renal,> 100 µM
same,TGI,NCI/ADR-RES ovarian,> 100 µM
COc1cc(/C=C\c2cc(/C=C\c3ccc(O)c(OC)c3)n(C(=O)COc3ccc(Cl)cc3Cl)n2)ccc1O,GI50,NCI-H226 lung,2.98 µM
same,TGI,NCI-H226 lung,10.2 µM
same,GI50,SK-MEL-28 melanoma,1.19 µM
same,TGI,SK-MEL-28 melanoma,7.32 µM
same,GI50,NCI-H522 lung,0.196 µM
same,TGI,NCI-H522 lung,0.837 µM
same,GI50,SN12C renal,0.935 µM
same,TGI,SN12C renal,65.8 µM
same,GI50,HCT-116 colon,0.416 µM
same,TGI,HCT-116 colon,6.21 µM
same,GI50,HCC-2998 colon,2.89 µM
same,TGI,HCC-2998 colon,12.4 µM
same,GI50,SF-539 CNS,0.38 µM
same,TGI,SF-539 CNS,2.85 µM
same,GI50,NCI-H460 lung,0.517 µM
same,TGI,NCI-H460 lung,14.2 µM
same,GI50,786-0 renal,0.634 µM
same,TGI,786-0 renal,2.52 µM
same,GI50,MCF7 breast,0.336 µM
same,TGI,MCF7 breast,2.33 µM
same,GI50,HCT-15 colon,0.342 µM
same,TGI,HCT-15 colon,3.61 µM
same,GI50,SF-268 CNS,0.621 µM
same,TGI,SF-268 CNS,9.84 µM
same,GI50,SW-620 colon,0.659 µM
same,TGI,SW-620 colon,> 100 µM
same,GI50,LOX IMVI melanoma,0.497 µM
same,TGI,LOX IMVI melanoma,3.29 µM
same,GI50,RPMI-8226 leukemia,0.569 µM
same,TGI,RPMI-8226 leukemia,7.62 µM
same,GI50,OVCAR-4 ovarian,1.29 µM
same,TGI,OVCAR-4 ovarian,> 100 µM
same,GI50,T-47D breast,1.25 µM
same,TGI,T-47D breast,3.99 µM
same,GI50,UO-31 renal,0.362 µM
same,TGI,UO-31 renal,2.3 µM
same,GI50,IGROV1 ovarian,1.99 µM
same,TGI,IGROV1 ovarian,10.3 µM
same,GI50,SF-295 CNS,3.07 µM
same,TGI,SF-295 CNS,8.87 µM
same,GI50,UACC-62 melanoma,0.552 µM
same,TGI,UACC-62 melanoma,12 µM
same,GI50,K-562 leukemia,0.381 µM
same,TGI,K-562 leukemia,> 100 µM
same,GI50,UACC-257 melanoma,2.19 µM
same,TGI,UACC-257 melanoma,7.13 µM
same,GI50,A549 NSCLC,1.31 µM
same,TGI,A549 NSCLC,10.3 µM
same,GI50,HT29 colon,2.75 µM
same,TGI,HT29 colon,7.03 µM
same,GI50,SK-OV-3 ovarian,1.26 µM
same,TGI,SK-OV-3 ovarian,3.43 µM
same,GI50,M14 melanoma,0.349 µM
same,TGI,M14 melanoma,4.83 µM
same,GI50,ACHN renal,0.476 µM
same,TGI,ACHN renal,9.13 µM
same,GI50,DU-145 prostate,0.833 µM
same,TGI,DU-145 prostate,9.94 µM
same,GI50,SNB-19 CNS,1.41 µM
same,TGI,SNB-19 CNS,11.7 µM
same,GI50,SK-MEL-5 melanoma,0.661 µM
same,TGI,SK-MEL-5 melanoma,3.03 µM
same,GI50,RXF 393 renal,1.27 µM
same,TGI,RXF 393 renal,3.33 µM
same,GI50,KM12 colon,0.506 µM
same,TGI,KM12 colon,26.2 µM
same,GI50,MDA-MB-231 breast,2.38 µM
same,TGI,MDA-MB-231 breast,23.4 µM
same,GI50,NCI-H23 lung,1.06 µM
same,TGI,NCI-H23 lung,5 µM
same,GI50,HL-60(TB) leukemia,0.314 µM
same,TGI,HL-60(TB) leukemia,1.31 µM
same,GI50,MALME-3M melanoma,0.488 µM
same,TGI,MALME-3M melanoma,5.03 µM
same,GI50,MOLT-4 leukemia,0.425 µM
same,TGI,MOLT-4 leukemia,3.46 µM
same,GI50,BT-549 breast,0.526 µM
same,TGI,BT-549 breast,3.34 µM
same,GI50,OVCAR-8 ovarian,1.59 µM
same,TGI,OVCAR-8 ovarian,6.09 µM
same,GI50,SK-MEL-2 melanoma,0.302 µM
same,TGI,SK-MEL-2 melanoma,1.54 µM
same,GI50,COLO 205 colon,1.98 µM
same,TGI,COLO 205 colon,4.01 µM
same,GI50,HOP-62 NSCLC,0.519 µM
same,TGI,HOP-62 NSCLC,3.16 µM
same,GI50,MDA-MB-435,0.243 µM
same,TGI,MDA-MB-435,14.7 µM
same,GI50,EKVX NSCLC,1.98 µM
same,TGI,EKVX NSCLC,9.72 µM
same,GI50,SNB-75 CNS,0.994 µM
same,TGI,SNB-75 CNS,7.81 µM
same,GI50,U251 CNS,0.916 µM
same,TGI,U251 CNS,6.15 µM
same,GI50,CCRF-CEM leukemia,0.432 µM
same,TGI,CCRF-CEM leukemia,> 100 µM
same,GI50,PC-3 prostate,1.8 µM
same,TGI,PC-3 prostate,8.02 µM
same,GI50,HS 578T breast,1.2 µM
same,TGI,HS 578T breast,> 100 µM
same,GI50,HOP-92 NSCLC,2.93 µM
same,TGI,HOP-92 NSCLC,7.94 µM
same,GI50,A498 renal,3.82 µM
same,TGI,A498 renal,12 µM
same,GI50,TK-10 renal,1.79 µM
same,TGI,TK-10 renal,8.06 µM
same,GI50,OVCAR-5 ovarian,2.71 µM
same,TGI,OVCAR-5 ovarian,8.32 µM
same,GI50,CAKI-1 renal,0.818 µM
same,TGI,CAKI-1 renal,> 100 µM
same,GI50,NCI/ADR-RES ovarian,0.538 µM
same,TGI,NCI/ADR-RES ovarian,21.1 µM
